# Experimental data published in patent publication US20220054658A1, “CONJUGATES” (Transfection Holdings Limited, priority 2018, published 2022).
# Key:
# [1] = tested on: C. elegans; assay: Protein uptake in C. elegans (phiLOV protein conjugates); assay type: in vivo, Caenorhabditis elegans; settings: positive control
# Protocol: The effective PhiLOV protein conjugate in M9 buffer was taken from the chemical ligation and purification experiments. The amount of M9 buffer added was determined by the final concentration required. Nematodes (30-40 per protein sample to be analysed) were picked and added to the protein solution, and the resulting suspension was treated with OP50 E. coli solution for nematode sustenance. The nematode suspension was incubated at 20° C. in the dark, and covered with aluminium foil.
# Aliquots (10 to 25 μL) were taken at 24, 48 and 72 h. and transferred into a new Eppendorf tube at each time point and diluted with M9 buffer (200 μL). The new suspension was placed in ice (for 1-2 min) and then centrifuged at 10.000 rpm for 1 min. The supernatant was removed and the concentrated nematodes were washed again (2×200 μL). In the final wash, a residual volume (approx. 30 μL) was left with the nematodes.
# For the microscopy studies, a 1.5% agarose solution in water was warmed up for 1-1.5 min in a standard household microwave (Power 4). Two drops of the agarose solution were placed on a glass slide and covered with another glass slide. After 1 min, the two slides were taken apart from each other carefully. On the slide where the agarose remained, 15-20 μL of the final C. elegans solution was placed. To this was added a 20 mM sodium azide solution (5 μL) to inhibit nematode mobility.
# Vaseline was placed around the agarose area before replacing the top cover slip. The cover slips were not pressed together. The nematodes were then analysed using a Zeiss Axiskop 2 Plus microscope using a Hamamatsu Orca-ER (CA 742-95) camera. The images were resolved using OpenLab on a Mac operating system.
# Feeding was repeated after 48 h. with addition of 2 μL of OP50 bacteria for feeding purposes, and the worm incubation was continued in the dark at […].
# Using the approach described above, 11 protein conjugates were tested for their ability to deliver the phiLOV protein into nematodes. […] The location and efficiency of the delivery can be modulated by small structural modifications to the delivery vehicle, as shown by compounds P1-P11 (including negative control, positive control using compound 1 and untagged phiLOV protein control).
# [2] = tested on: L. passim strain PRA-403; assay: Lotmaria passim parasite uptake test; assay type: cell-based; settings: 1 μM, room temperature, 45 min, microplate reader
# [3] = tested on: C. elegans; assay: Conjugate uptake in C. elegans (dye and praziquantel conjugates, fluorescence microscopy); assay type: in vivo, Caenorhabditis elegans
# In short: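 Worms in M9 buffer were exposed to 50 μM compound from a DMSO stock at room temperature in the dark for 3 h. Other samples were incubated overnight at 20 °C with OP50, and praziquantel conjugates were also read at 24 and 72 h. Worms were washed, immobilised with sodium azide on agarose and imaged by fluorescence microscopy.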
# [4] = tested on: gastrointestinal system (crop, midgut and rectum) of adult honey bees; assay: Honey bee gut uptake test; parameters: species or system Apis mellifera; settings: 100 μM, 33° C., 45 min
# Protocol: Honey bee (A. mellifera) hives were obtained and allowed to feed ab libitum spring to autumn. During the winter period, pollen mixed with 50% (v/v) sucrose was added to the honey bee hives in order to provide sufficient food. Honey bees were dissected and gastrointestinal system was removed including the crop, midgut and rectum, and added immediately to 500 μL of the delivery vehicle to be tested sample diluted with PBS at 100 μM final concentration or DMSO (0.1%) control. The mixture was incubated for 45 min at 33° C.
# The gastrointestinal system (crop, midgut and rectum) of adult honey bees was extracted, and incubated with derivatives 1, 2, 8 and 11 at 100 μM and 33° C. for 45 min.
smiles,measurement,setting,value
"CC1=CC(C)=[N+]2C1=Cc1ccc(CCCn3cc(CCNC(=O)/C=C/NC(=O)[C@@H]4OC(C)(C)OCC4(C)C)nn3)n1[B-]2(F)F [Compound 1, (R,E)-N-((((3-[4,4-Difluoro-5,7-dimethyl-4-bora-3a,4a-diaza-s-indacene-3-yl]propyl)-1H-1,2,3-triazol-4-yl)ethylamino)-3-oxoprop-1-enyl)-2,2,5,5-tetramethyl-1,3-dioxane-4-carboxamide]",location of fluorescence in C. elegans,[1]; 24 h incubation,"fluorescence could be observed in the pharynx, gut lumen and gut cells of both adults and larval stages of C. elegans"
same,location of fluorescence in C. elegans,[1]; 48 h incubation,"fluorescence was still localised in the pharynx, gut lumen and gut cells of both adults and larvae"
same,location of fluorescence in C. elegans,[1]; 72 h incubation,"fluorescence was still localised in the pharynx, gut lumen and gut cells of both adults and larvae"
same,state of adult nematodes,[1]; 72 h point (same seen with M9 buffer negative control),the adult nematodes were dead
same,fluorescence relative to derivative 2,[2],approximately % of the fluorescence of derivative 2
same,uptake compared to other compounds,"[3]; 50 μM, 3 h incubation",largest uptake observed compared to compounds 2 to 8
same,uptake: location of fluorescence in C. elegans,"[3]; 50 μM, 3 h incubation","observed in the pharynx, gut lumen and gut cells of both adults and larval stages"
same,uptake: location of fluorescence in C. elegans,"[3]; 50 μM, 20 h / overnight incubation","strong fluorescence was localised in the pharynx, gut lumen and gut cells of both adults and larvae"
same,distribution in C. elegans,"[3]; FIG. 2(h), fluorescence microscopy",distributed throughout the nematode
same,"fluorescence in honey bee gut (crop, midgut, rectum)",[4],"high fluorescence in the midgut and rectum, but not the crop"
